Results on 22 compounds are retold here after patent US11332459B2 (TEIJIN PHARMA LIMITED, priority 2017, dated 2022).

The target in this test is T1, human TRPC6 (Homo sapiens, UniProt Q9Y210).
T1 construct: expressed in transfected cells
T1 sequence (Q9Y210 1-931): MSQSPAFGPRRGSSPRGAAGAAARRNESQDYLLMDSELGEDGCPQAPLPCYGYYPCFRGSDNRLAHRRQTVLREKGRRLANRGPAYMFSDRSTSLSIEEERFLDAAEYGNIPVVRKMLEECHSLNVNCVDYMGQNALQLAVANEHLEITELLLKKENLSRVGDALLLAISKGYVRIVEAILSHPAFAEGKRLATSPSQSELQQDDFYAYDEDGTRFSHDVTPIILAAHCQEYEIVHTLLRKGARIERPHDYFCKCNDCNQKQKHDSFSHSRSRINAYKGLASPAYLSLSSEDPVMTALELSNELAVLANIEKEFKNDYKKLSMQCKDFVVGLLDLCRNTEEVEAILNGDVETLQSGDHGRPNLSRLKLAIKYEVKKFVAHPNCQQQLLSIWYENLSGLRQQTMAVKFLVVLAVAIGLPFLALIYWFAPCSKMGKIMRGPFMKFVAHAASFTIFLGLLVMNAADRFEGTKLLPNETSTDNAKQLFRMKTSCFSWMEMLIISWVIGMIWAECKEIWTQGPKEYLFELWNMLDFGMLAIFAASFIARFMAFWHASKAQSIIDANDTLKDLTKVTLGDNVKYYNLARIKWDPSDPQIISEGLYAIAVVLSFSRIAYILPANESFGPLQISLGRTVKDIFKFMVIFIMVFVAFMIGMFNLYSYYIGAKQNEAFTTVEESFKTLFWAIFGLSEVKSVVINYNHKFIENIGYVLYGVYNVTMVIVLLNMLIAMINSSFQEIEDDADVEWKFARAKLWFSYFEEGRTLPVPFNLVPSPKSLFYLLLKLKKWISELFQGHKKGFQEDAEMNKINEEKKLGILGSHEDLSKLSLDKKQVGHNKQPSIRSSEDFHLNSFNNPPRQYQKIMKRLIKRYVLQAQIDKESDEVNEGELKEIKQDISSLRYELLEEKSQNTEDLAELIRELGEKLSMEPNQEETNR
The test is described as follows: TRPC6 calcium flux assay (FLIPR, OAG-stimulated calcium influx). Format: cell-based. The following applies: HEK293 cells stably transfected with human TRPC6, read-out: hTRPC6 Potency. The gist of the method:
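HEK293 cells stably expressing human TRPC6, loaded with calcium dye 90–120 min at RT, then given compound for 25 min before OAG (50 uM final, 0.5% DMSO) in HEPES buffer pH 7.2 with 2 mM CaCl2. Background-subtracted FLIPR peak over 180 s normalized to OAG vs buffer; IC50 from dose plot.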
(In general: Calcium assays in cells follow changes in intracellular calcium, usually with a dye or a luminescent sensor.)

Structures can show the parent of a compound that is named as a salt.

For `C[C@H](c1ccc(Cl)cn1)n1c(N2CC[C@@H](F)[C@H](N)C2)nc2cc(Cl)ccc21` [Example 219, (3R,4R)-1-(5-chloro-1-((R)-1-(5-chloropyridin-2-yl)ethyl)-1H-benzo[d]imidazol-2-yl)-4-fluoropiperidin-3-amine hydrochloride], the IC50 worked out at 0.0159 µM. With `C[C@@H](c1ccc(Cl)cn1)n1c(N2CC[C@@H](F)[C@H](N)C2)nc2cc(Cl)ccc21` [Example 220, (3R,4R)-1-(5-chloro-1-((S)-1-(5-chloropyridin-2-yl)ethyl)-1H-benzo[d]imidazol-2-yl)-4-fluoropiperidin-3-amine hydrochloride], the IC50 was determined as 0.000986 µM. As to `C[C@H](c1ccc(Cl)cn1)n1c(N2CC[C@@H](F)[C@H](N)C2)nc2ccc(Cl)cc21` [Example 221, (3R,4R)-1-(6-chloro-1-((R)-1-(5-chloropyridin-2-yl)ethyl)-1H-benzo[d]imidazol-2-yl)-4-fluoropiperidin-3-amine hydrochloride], the IC50 came out at 0.0549 µM. Regarding `C[C@@H](c1ccc(Cl)cn1)n1c(N2CC[C@@H](F)[C@H](N)C2)nc2ccc(Cl)cc21` [Example 222, (3R,4R)-1-(6-chloro-1-((S)-1-(5-chloropyridin-2-yl)ethyl)-1H-benzo[d]imidazol-2-yl)-4-fluoropiperidin-3-amine hydrochloride], the IC50 was 0.00204 µM. As to `C[C@H](c1ccc(C#N)cn1)n1c(N2CC[C@@H](F)[C@H](N)C2)nc2ccc(C#N)cc21` [Example 223, 2-((3R,4R)-3-amino-4-fluoropiperidin-1-yl)-1-((R)-1-(5-cyanopyridin-2-yl)ethyl)-1H-benzo[d]imidazole-6-carbonitrile hydrochloride], the IC50 is 0.0515 µM. The same measure for `C[C@H](c1ccc(C#N)cn1)n1c(N2CC[C@@H](F)[C@H](N)C2)nc2cc(C#N)ccc21` [Example 224, 2-((3R,4R)-3-amino-4-fluoropiperidin-1-yl)-1-((R)-1-(5-cyanopyridin-2-yl)ethyl)-1H-benzo[d]imidazole-5-carbonitrile hydrochloride]: 0.158 µM; for `C[C@@H](c1ccc(C#N)cn1)n1c(N2CC[C@@H](F)[C@H](N)C2)nc2ccc(C#N)cc21` [Example 225, 2-((3R,4R)-3-amino-4-fluoropiperidin-1-yl)-1-((S)-1-(5-cyanopyridin-2-yl)ethyl)-1H-benzo[d]imidazole-6-carbonitrile hydrochloride]: 0.00281 µM; for `C[C@@H](c1ccc(C#N)cn1)n1c(N2CC[C@@H](F)[C@H](N)C2)nc2cc(C#N)ccc21` [Example 226, 2-((3R,4R)-3-amino-4-fluoropiperidin-1-yl)-1-((S)-1-(5-cyanopyridin-2-yl)ethyl)-1H-benzo[d]imidazole-5-carbonitrile hydrochloride]: 0.0137 µM.

As to `N[C@@H]1CN(c2nc3cc(F)c(F)cc3n2Cc2ccc(Cl)cn2)CC[C@H]1F` [Example 227, (3R,4R)-1-(1-((5-chloropyridin-2-yl)methyl)-5,6-difluoro-1H-benzo[d]imidazol-2-yl)-4-fluoropiperidin-3-amine hydrochloride], the IC50 is 0.000328 µM. The same measure for `N[C@@H]1CN(c2nc3cc(F)c(F)cc3n2Cc2ccc(F)cn2)CC[C@H]1F` [Example 228, (3R,4R)-1-(5,6-difluoro-1-((5-fluoropyridin-2-yl)methyl)-1H-benzo[d]imidazol-2-yl)-4-fluoropiperidin-3-amine hydrochloride]: 0.00032 µM; for `N[C@@H]1CN(c2nc3cc(F)cc(F)c3n2Cc2ccc(Cl)cn2)CCC1(F)F` [Example 229, (R)-1-(1-((5-chloropyridin-2-yl)methyl)-5,7-difluoro-1H-benzo[d]imidazol-2-yl)-4,4-difluoropiperidin-3-amine hydrochloride]: 0.0422 µM. Regarding `N[C@@H]1CN(c2nc3c(F)cc(F)cc3n2Cc2ccc(Cl)cn2)CCC1(F)F` [Example 230, (R)-1-(1-((5-chloropyridin-2-yl)methyl)-4,6-difluoro-1H-benzo[d]imidazol-2-yl)-4,4-difluoropiperidin-3-amine hydrochloride], the IC50 came to 0.00049 µM.

As to `N#Cc1ccc2c(c1)CC[C@H]2n1c(N2CC[C@@H](F)[C@H](N)C2)nc2ccccc21` [Example 231, (R)-1-(2-((3R,4R)-3-amino-4-fluoropiperidin-1-yl)-1H-benzo[d]imidazol-1-yl)-2,3-dihydro-1H-indene-5-carbonitrile hydrochloride], the IC50 was found to be 0.737 µM. Consider `N#Cc1ccc2c(c1)CC[C@@H]2n1c(N2CC[C@@H](F)[C@H](N)C2)nc2ccccc21` [Example 232, (S)-1-(2-((3R,4R)-3-amino-4-fluoropiperidin-1-yl)-1H-benzo[d]imidazol-1-yl)-2,3-dihydro-1H-indene-5-carbonitrile hydrochloride], for which the IC50 was 0.00216 µM. The same measure for `N#Cc1cnc(Cn2c(N3CCC(F)(F)[C@H](N)C3)nc3ccc(Cl)cc32)cn1` [Example 233, (R)-5-((2-(3-amino-4,4-difluoropiperidin-1-yl)-6-chloro-1H-benzo[d]imidazol-1-yl)methyl)pyrazine-2-carbonitrile]: 0.00147 µM. The same measure for `N#Cc1cnc(Cn2c(N3CCC(F)(F)[C@H](N)C3)nc3cc(Cl)ccc32)cn1` [Example 234, (R)-5-((2-(3-amino-4,4-difluoropiperidin-1-yl)-5-chloro-1H-benzo[d]imidazol-1-yl)methyl)pyrazine-2-carbonitrile]: 0.0269 µM; for `CC(C)NC(=O)Cn1c(N2CC[C@@H](F)[C@H](N)C2)nc2cc(F)c(F)cc21` [Example 235, 2-(2-((3R,4R)-3-amino-4-fluoropiperidin-1-yl)-5,6-difluoro-1H-benzo[d]imidazol-1-yl)-N-isopropylacetamide]: 0.15 µM. The same measure for `N[C@@H]1CN(c2nc3cc(F)c(F)cc3n2CC(=O)N2CCC2)CC[C@H]1F` [Example 236, 2-(2-((3R,4R)-3-amino-4-fluoropiperidin-1-yl)-5,6-difluoro-1H-benzo[d]imidazol-1-yl)-1-(azetidin-1-yl)ethanone]: 0.0238 µM; for `COc1cnc(Cn2c(N3CC[C@@H](F)[C@H](N)C3)nc3cc(C#N)ccc32)nc1` [Example 241, 2-((3R,4R)-3-amino-4-fluoropiperidin-1-yl)-1-((5-methoxypyrimidin-2-yl)methyl)-1H-benzo[d]imidazole-5-carbonitrile hydrochloride]: greater than 3.75 µM; for `COc1cnc(Cn2c(N3CC[C@@H](F)[C@H](N)C3)nc3ccc(C#N)cc32)nc1` [Example 242, 2-((3R,4R)-3-amino-4-fluoropiperidin-1-yl)-1-((5-methoxypyrimidin-2-yl)methyl)-1H-benzo[d]imidazole-6-carbonitrile hydrochloride]: 0.0735 µM. As for `N#Cc1ccc2nc(N3CC[C@@H](F)[C@H](N)C3)n(Cc3ccc(C(F)(F)F)nc3)c2c1` [Example 243, 2-((3R,4R)-3-amino-4-fluoropiperidin-1-yl)-1-((6-(trifluoromethyl)pyridin-3-yl)methyl)-1H-benzo[d]imidazole-6-carbonitrile hydrochloride], the IC50 was determined as 1.97 µM.

Consider `N#Cc1ccc2c(c1)nc(N1CC[C@@H](F)[C@H](N)C1)n2Cc1ccc(C(F)(F)F)nc1` [Example 244, 2-((3R,4R)-3-amino-4-fluoropiperidin-1-yl)-1-((6-(trifluoromethyl)pyridin-3-yl)methyl)-1H-benzo[d]imidazole-5-carbonitrile hydrochloride], for which the IC50 was greater than 3.75 µM.
